From patent US8486949B2, “Use of azaperone for improving growth performance” (Elanco Animal Health Ireland Limited, priority 2008, dated 2013)

Assays:
weaned pigs [1] = assay: Preclinical study of the effects of azaperone administered via drinking water: body weight per pig; format: in vivo
Method: Preclinical Study of the Effects of Azaperone Administered Via Drinking Water The study was performed in weaned pigs to investigate the effect of azaperone that was continuously orally administered via drinking water on behaviour, feed conversion, growth and homogeneity of growth. Groups of approximately 250 pigs were enrolled in the study starting from the moment they were weaned. The pigs were housed according to everyday farming conditions in a conventional pig farm. All pigs were housed in similar buildings. Each group was housed in 2 compartments, gilts and barrows were housed in separate compartments. Pigs were kept in pens of approximately 12 individuals each. After weaning, the piglets were housed in continuous artificial light for the first 48 hours. Afterwards, pigs were housed in continuous darkness for the further duration of the study, except during observations (twice a day). During the course of the study, pigs were not vaccinated. A metaphylactic colistine treatment via drinking water was applied in each group starting from the fifth day after weaning. Treatment continued for seven days. Pigs were fed ad libitum. Troughs were filled automatically with a computerized system that records the supplied weight of feed per pen. During the first ten days of the nursery period, pigs were fed a pelleted weaner feed which had also been available to the piglets in the farrowing unit. Between the 10th and 15th day at the nursery, the weaner feed was gradually replaced by grower pellets which have been given until the 35th day. Finally a switch was made between the 35th and the 40th day from grower pellets to starter pellets. Tap water was available during the whole period of the study and was supplied via a water nipple in the feeding trough. The drinking water comprising azaperone was obtained by diluting Stresnil™ injection in water to obtain a concentration of 6 mg azaperone per liter drinking water. A primary dilution was prepared by diluting 90 ml of Stresnil™ 4% injectable solution with tap water to obtain 6 liters of preparation. This primary dilution was linked for 24 hours with an automatic dosing system which continuously diluted the preparation in the drinking water at a rate of 1 to 100. One preparation of the primary dilution was sufficient to treat 600 liters of drinking water which exceeded the anticipated daily consumed volume of water by the pigs in one compartment. The two following days, a new primary dilution was made fresh each morning and linked to the automatic dosing system for 24 hours. This study was a controlled parallel study with 4 sequential groups of approximately 250 weaned pigs each. The first and third group were treated with azaperone via the drinking water for 3 consecutive days. The second and fourth group were control groups treated with placebo (plain drinking water). After the completion of these four groups, two additional groups (one treated with azaperone and one control group) were included in the study to investigate more in detail the effect of the azaperone treatment on the behaviour of the pigs. In each of these additional groups, 5 pens of approximately 12 pigs were enclosed. On day one of the test period, water containing 6 mg azaperone per liter or placebo, was made available. Starting from the fourth day, the drinking water no longer contained azaperone. All pigs followed the normal procedures for further fattening. No pigs were brought to the slaughterhouse during the study (3 days dosing and 39 days follow-up). Body weights were determined for all pigs in groups 1 to 4. The body weight of each individual animal was determined a first time at the start of the study, just before movement to the nursery and a second time at the end of the study, after a period of 42 days in the nursery. […]

weaned pigs [2] = assay: Behaviour of the animals per pen (groups 5 and 6: pigs lying down, eating or drinking, hierarchical fights); format: in vivo
Method: This study was a controlled parallel study with 4 sequential groups of approximately 250 weaned pigs each. The first and third group were treated with azaperone via the drinking water for 3 consecutive days. The second and fourth group were control groups treated with placebo (plain drinking water). After the completion of these four groups, two additional groups (one treated with azaperone and one control group) were included in the study to investigate more in detail the effect of the azaperone treatment on the behaviour of the pigs. In each of these additional groups, 5 pens of approximately 12 pigs were enclosed.
In order to assess the effect of the azaperone treatment on the behaviour of the animals after weaning, the occurrence of hierarchical fights was followed in groups 1 to 4 and recorded by the Principal Investigator during a period of 1 week after weaning. Every day a behaviour score of 0 to 2 was given to each pen:
In groups 1 to 4, behaviour of the pigs was always scored as normal although hierarchical fighting was reported on the farm. […] These two additional groups (one treated with azaperone and one control group) were closely monitored for behavioural changes. During the first 7 hours after weaning and movement to the nurseries, the occurrence and severity of hierarchical fights, the number of pigs laying down, and the number of pigs eating or drinking, was recorded. […]

pigs = conditions: cited from earlier work

## O=C(CCCN1CCN(c2ccccn2)CC1)c1ccc(F)cc1 [azaperone]
Weaned pigs [1]; 6 mg azaperone per liter drinking water for 3 days, 42 day test period, mean±SD
  body weight gained during the study: 16.3 ± 3.31 kg
Weaned pigs [1]; after 42 days in the nursery
  Final BW CoV (coefficient of variation): 18%
Weaned pigs [1]; after 42 days in the nursery, 6 mg/liter drinking water for first 3 days
  Final BW: 23.62 kg
Weaned pigs [1]; over 42 days
  body weight gain CoV (coefficient of variation): 20%
Weaned pigs [1]; over 42 days, 6 mg/liter drinking water for first 3 days
  body weight gain: 16.34 kg
Weaned pigs [1]; versus placebo groups
  homogeneity of body weight distribution at the end of the testing period: more homogenous body weight distribution
Weaned pigs [2]; groups 5 and 6, first 7 hours after initiation of treatment, 6 mg/liter drinking water
  number of pigs lying down or eating versus placebo: no difference
Weaned pigs [2]; oral via drinking water, 6 mg/liter
  sedative effect: absence of a sedative effect
pigs; intramuscular administration to pigs, Gonyou et al., J. Anim. Sci. 1988
  effect on weight gain, feed consumption or feed efficiency: did not had significant effect
pigs; intramuscular injection to pigs, Blackshaw, Aust. Vet. J. 1981
  effect in promoting relative growth rate: no effect
pigs; intramuscular injection to pigs, Porter and Slusser, Veterinary Medicine 1985
  weight gain: increased weight gain
